Measured values as given in US6914045B2, “Glycopeptide antibiotics” (Wyeth Holdings Corporation, priority 2001, dated 2005).
≈ marks a conversion by molar mass, not a printed value.

Assays:
Experiment in all cases: in vitro antibacterial evaluation, MIC by broth dilution
Type in all cases: cell-based
[1] = test system: Escherichia coli; conditions: 18 hours at 35° C.
[2] = test system: Streptococcus sp.; conditions: broth dilution, 18 hours at 35° C.
How it was run: (§1)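 Inoculum 5×10^5 CFU/mL; concentrations 64 to 0.06 μg/mL; MIC defined as lowest inhibitory level. Conducted by broth dilution under NCCLS guidelines.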

[3] = test system: Staphylococcus sp.; conditions: broth dilution, 18 hours at 35° C.
How it was run: as §1

[4] = test system: Enterococcus sp.; conditions: broth dilution, 18 hours at 35° C.
How it was run: as §1

CCCCCNC(=O)OCC1OC(OC2C(CO)OC(Oc3ccc(CC4NC(=O)C(C(C)c5ccccc5)NC(=O)CNC(=O)C(CO)NC(=O)C(C(O)C5CNC(=N)N5C5OC(CO)C(O)C(O)C5O)NC(=O)C(C(O)C5CNC(=N)N5)NC4=O)cc3)C(O)C2O)C(O)C(O)C1O (centres unmarked) [Example 251b]
MIC Escherichia coli (ATCC 25922) [1]: >64 µg/mL | MIC Escherichia coli (GC 4559) [1]: >64 µg/mL | MIC Escherichia coli (GC 4560) [1]: 2 µg/mL (≈ 1.42 µM) | MIC Streptococcus agalactiae (GC 4564) [2]: 4 µg/mL (≈ 2.84 µM) | MIC Streptococcus pneumoniae (GC 4565) [2]: 1 µg/mL (≈ 0.71 µM) | MIC Streptococcus pyogenes (ID-3187) [2]: 2 µg/mL (≈ 1.42 µM) | MIC Streptococcus agalactiae (GC 4564) ([2]; strain GC 4564): 4 µg/mL (≈ 2.84 µM) | MIC Streptococcus pneumoniae (GC 4565) ([2]; strain GC 4565): 1 µg/mL (≈ 0.71 µM) | MIC Streptococcus pyogenes (ID-3187) ([2]; strain ID-3187): 2 µg/mL (≈ 1.42 µM) | MIC Coagulase Negative Staphylococcus (GC 4547) [3]: 8 µg/mL (≈ 5.68 µM) | MIC Coagulase Negative Staphylococcus (GC 4548) [3]: 8 µg/mL (≈ 5.68 µM) | MIC Coagulase Negative Staphylococcus (GC 4549) [3]: 4 µg/mL (≈ 2.84 µM) | MIC Coagulase Negative Staphylococcus (GC 4551) [3]: 16 µg/mL (≈ 11.4 µM) | MIC Coagulase Negative Staphylococcus (ID-3941) [3]: 4 µg/mL (≈ 2.84 µM) | MIC Staphylococcus aureus (ATCC 29213) [3]: 16 µg/mL (≈ 11.4 µM) | MIC Staphylococcus aureus (GC 1131) [3]: 8 µg/mL (≈ 5.68 µM) | MIC Staphylococcus aureus (GC 4541) [3]: 8 µg/mL (≈ 5.68 µM) | MIC Staphylococcus aureus (GC 4542) [3]: 8 µg/mL (≈ 5.68 µM) | MIC Staphylococcus aureus (GC 4544) [3]: 16 µg/mL (≈ 11.4 µM) | MIC Staphylococcus aureus (GC 4545) [3]: 8 µg/mL (≈ 5.68 µM) | MIC Staphylococcus aureus-SMITH (GC 4543) [3]: 8 µg/mL (≈ 5.68 µM) | MIC Staphylococcus haemolyticus (GC 4546) [3]: 8 µg/mL (≈ 5.68 µM) | MIC Staphylococcus aureus (ATCC 29213) ([3]; strain ATCC 29213): 16 µg/mL (≈ 11.4 µM) | MIC Staphylococcus aureus (GC 1131) ([3]; strain GC 1131): 8 µg/mL (≈ 5.68 µM) | MIC Staphylococcus aureus (GC 4541) ([3]; strain GC 4541): 8 µg/mL (≈ 5.68 µM) | MIC Staphylococcus aureus (GC 4542) ([3]; strain GC 4542): 8 µg/mL (≈ 5.68 µM) | MIC Staphylococcus aureus-SMITH (GC 4543) ([3]; strain GC 4543): 8 µg/mL (≈ 5.68 µM) | MIC Staphylococcus aureus (GC 4544) ([3]; strain GC 4544): 16 µg/mL (≈ 11.4 µM) | MIC Staphylococcus aureus (GC 4545) ([3]; strain GC 4545): 8 µg/mL (≈ 5.68 µM) | MIC Staphylococcus haemolyticus (GC 4546) ([3]; strain GC 4546): 8 µg/mL (≈ 5.68 µM) | MIC Coagulase Negative Staphylococcus (GC 4547) ([3]; strain GC 4547): 8 µg/mL (≈ 5.68 µM) | MIC Coagulase Negative Staphylococcus (GC 4548) ([3]; strain GC 4548): 8 µg/mL (≈ 5.68 µM) | MIC Coagulase Negative Staphylococcus (GC 4549) ([3]; strain GC 4549): 4 µg/mL (≈ 2.84 µM) | MIC Coagulase Negative Staphylococcus (GC 4551) ([3]; strain GC 4551): 16 µg/mL (≈ 11.4 µM) | MIC Coagulase Negative Staphylococcus (ID-3941) ([3]; strain ID-3941): 4 µg/mL (≈ 2.84 µM) | MIC Enterococcus avium (GC 4558) [4]: 64 µg/mL (≈ 45.4 µM) | MIC Enterococcus faecalis (ATCC 29212) [4]: 64 µg/mL (≈ 45.4 µM) | MIC Enterococcus faecalis (GC 2242) [4]: 32 µg/mL (≈ 22.7 µM) | MIC Enterococcus faecalis (GC 4552) [4]: 64 µg/mL (≈ 45.4 µM) | MIC Enterococcus faecalis (GC 4553) [4]: 64 µg/mL (≈ 45.4 µM) | MIC Enterococcus faecalis (GC 4554) [4]: 64 µg/mL (≈ 45.4 µM) | MIC Enterococcus faecium (GC 2243) [4]: 64 µg/mL (≈ 45.4 µM) | MIC Enterococcus faecium (GC 4556) [4]: 64 µg/mL (≈ 45.4 µM) | MIC Enterococcus faecium (GC 4557) [4]: 4 µg/mL (≈ 2.84 µM) | MIC Enterococcus faecalis (ATCC 29212) ([4]; strain ATCC 29212): 64 µg/mL (≈ 45.4 µM) | MIC Enterococcus faecalis (GC 2242) ([4]; strain GC 2242): 32 µg/mL (≈ 22.7 µM) | MIC Enterococcus faecium (GC 2243) ([4]; strain GC 2243): 64 µg/mL (≈ 45.4 µM) | MIC Enterococcus faecalis (GC 4552) ([4]; strain GC 4552): 64 µg/mL (≈ 45.4 µM) | MIC Enterococcus faecalis (GC 4553) ([4]; strain GC 4553): 64 µg/mL (≈ 45.4 µM) | MIC Enterococcus faecalis (GC 4554) ([4]; strain GC 4554): 64 µg/mL (≈ 45.4 µM) | MIC Enterococcus faecium (GC 4556) ([4]; strain GC 4556): 64 µg/mL (≈ 45.4 µM) | MIC Enterococcus faecium (GC 4557) ([4]; strain GC 4557): 4 µg/mL (≈ 2.84 µM) | MIC Enterococcus avium (GC 4558) ([4]; strain GC 4558): 64 µg/mL (≈ 45.4 µM)
